Like-named read-outs stand apart in the source and are kept apart here.
Columns and labels:
Menin-T349M = target: T1, Menin-T349M (Homo sapiens, UniProt O00255, T344M); experiment: Fluorescence polarization assay of Menin binding to MLL peptide, T349M mutant; settings: FP, 8 nM Menin, 4 nM MLL peptide
T1 sequence (O00255 1-615 isoform O00255-1 T349M): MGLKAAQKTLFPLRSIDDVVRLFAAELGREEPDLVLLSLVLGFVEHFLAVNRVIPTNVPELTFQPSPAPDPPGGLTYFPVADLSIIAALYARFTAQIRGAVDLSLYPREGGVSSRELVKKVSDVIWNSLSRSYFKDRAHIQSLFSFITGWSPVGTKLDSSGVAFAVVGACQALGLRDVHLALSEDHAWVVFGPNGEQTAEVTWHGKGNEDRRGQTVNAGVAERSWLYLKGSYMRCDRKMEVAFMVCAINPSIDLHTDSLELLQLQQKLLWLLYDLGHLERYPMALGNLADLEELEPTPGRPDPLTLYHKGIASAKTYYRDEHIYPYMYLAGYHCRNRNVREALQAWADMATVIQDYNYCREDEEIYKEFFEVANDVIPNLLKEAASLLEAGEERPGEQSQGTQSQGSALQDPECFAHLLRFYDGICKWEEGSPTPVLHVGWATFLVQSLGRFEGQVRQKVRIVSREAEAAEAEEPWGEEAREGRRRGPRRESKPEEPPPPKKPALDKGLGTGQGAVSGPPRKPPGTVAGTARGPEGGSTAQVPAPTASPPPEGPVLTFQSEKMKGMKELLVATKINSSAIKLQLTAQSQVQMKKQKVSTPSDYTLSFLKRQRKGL
Source text: • 1. Objective: To evaluate the inhibitory activity of compounds against wild-type Menin protein (Menin-WT) and its mutant variants (Menin-M327V, Menin-M327I, Menin-T349M, Menin-S160T, Menin-S160C, Menin-G331R, and Menin-G331D). • 2. Experimental Principle: The experiment employed fluorescence polarization (FP) to detect the binding of wild-type Menin protein and its mutant variants to MLL peptide. In the absence of inhibitors, binding of wild-type Menin protein and its mutant variants to MLL peptide generates a high FP signal; upon addition of inhibitors, the binding between Menin proteins and MLL peptide is disrupted, resulting in a low FP signal. • 3. Experimental Materials: Final concentration of wild-type Menin protein and its mutant variants: 8 nM; final concentration of MLL peptide: 4 nM. Assay buffer: 50 mM Tris-HCl (pH 8.0), 120 mM NaCl, 0.005% CA-630, 2 mM DTT. • 4. […] The plate was centrifuged at 1000 rpm for 60 seconds. Subsequently, 10 µL of MLL peptide was added to each assay well. The plate was centrifuged at 1000 rpm for 60 seconds and sealed with a sealing membrane. After incubation at 23°C for 60 minutes, the plate was read using a PerkinElmer Envision reader. Data Analysis: [formula]
Curve fitting: XLFIT software was used for curve fitting, employing a four-parameter logistic model with percent inhibition versus log(compound concentration) as variables.

hERG potassium channel = target: T2, hERG potassium channel (Homo sapiens, UniProt Q12809); experiment: Inhibition of hERG current, manual whole-cell patch-clamp in HEK293 cells stably transfected with hERG; assay type: cell-based
T2 construct: expressed in transfected cells; host or cells: HEK293 (HEK-293-hERG)
Source text: • 1. Objective: To evaluate the inhibitory effect of test compounds on hERG current in HEK293 cells stably transfected with the hERG potassium channel using manual patch-clamp technique. • 2. Experimental Materials: The test compound was Compound 3 prepared according to the examples of the present invention; the positive control compound SNDX-5613 was purchased from Chengdu Zhihui Zhongxin Biomedical Co., Ltd.; HEK293 cells were obtained from Procell (Cat. #CL-0001). […]
Following establishment of the whole-cell recording configuration, the holding potential was maintained at -80 mV. […] Once the recorded hERG current stabilized, compounds were administered via continuous extracellular perfusion from low to high concentrations (0.3, 1, 3, 10, and 30 µmol/L). […]
Data Acquisition and Analysis: Experimental data were acquired using Clampex software and analyzed using Clampfit software. First, the current following each compound concentration was normalized to the control current ((Peak tail current (compound))/(Peak tail current (blank))) × 100 [formula] , then the inhibition rate for each compound concentration was calculated (1−(Peak tail current (compound))/(Peak tail current (blank))) × 100 [formula] . […]

T2 sequence (Q12809 whole entry): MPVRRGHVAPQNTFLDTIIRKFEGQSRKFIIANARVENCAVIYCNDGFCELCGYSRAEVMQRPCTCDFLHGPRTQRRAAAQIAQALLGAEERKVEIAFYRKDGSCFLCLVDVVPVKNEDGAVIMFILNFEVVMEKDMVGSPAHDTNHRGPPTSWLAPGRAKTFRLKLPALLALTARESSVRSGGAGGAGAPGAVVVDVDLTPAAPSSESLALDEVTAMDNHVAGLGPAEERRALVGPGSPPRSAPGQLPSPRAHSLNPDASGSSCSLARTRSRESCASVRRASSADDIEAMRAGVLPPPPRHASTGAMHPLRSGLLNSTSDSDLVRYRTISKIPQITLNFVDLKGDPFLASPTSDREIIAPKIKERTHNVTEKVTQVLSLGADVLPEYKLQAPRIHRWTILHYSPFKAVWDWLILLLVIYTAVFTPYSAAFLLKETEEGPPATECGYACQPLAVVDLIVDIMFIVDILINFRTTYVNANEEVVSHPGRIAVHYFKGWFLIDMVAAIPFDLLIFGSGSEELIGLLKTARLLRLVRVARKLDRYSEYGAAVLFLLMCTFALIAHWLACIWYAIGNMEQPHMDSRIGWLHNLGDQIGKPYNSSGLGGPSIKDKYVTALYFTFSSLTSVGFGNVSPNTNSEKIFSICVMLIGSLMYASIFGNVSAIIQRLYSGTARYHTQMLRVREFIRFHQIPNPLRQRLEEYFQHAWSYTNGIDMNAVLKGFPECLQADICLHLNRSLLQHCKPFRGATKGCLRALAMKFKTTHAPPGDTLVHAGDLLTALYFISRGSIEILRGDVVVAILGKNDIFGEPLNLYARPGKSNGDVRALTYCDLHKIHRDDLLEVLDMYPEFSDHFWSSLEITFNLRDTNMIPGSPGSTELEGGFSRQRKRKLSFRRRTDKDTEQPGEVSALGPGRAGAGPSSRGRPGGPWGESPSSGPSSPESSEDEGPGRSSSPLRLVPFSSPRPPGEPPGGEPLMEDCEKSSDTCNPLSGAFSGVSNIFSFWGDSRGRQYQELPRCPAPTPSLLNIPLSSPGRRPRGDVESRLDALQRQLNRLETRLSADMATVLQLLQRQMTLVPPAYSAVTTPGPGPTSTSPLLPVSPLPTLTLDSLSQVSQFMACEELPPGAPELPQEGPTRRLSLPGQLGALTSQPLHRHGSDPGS

SMILES	IC50 (Menin-T349M) [nM]	IC50 (hERG potassium channel) [nM]	IC50 (hERG potassium channel; HEK293-hERG cells, manual patch-clamp, 0.3-30 µmol/L, room temperature, read-out: IC50 (hERG tail current)) [nM]
CCN(C(=O)c1cc(F)ccc1N1CCN([C@@H]2CCN([C@H](CCCN(C)CCOC)C(C)C)C2)c2ncncc21)C(C)C [Example 3]	46.7	> 30000	–
CCN(C(=O)c1cc(F)ccc1Oc1cncnc1N1CC2(CCN(C[C@H]3CC[C@H](NS(=O)(=O)CC)CC3)CC2)C1)C(C)C [SNDX-5613, revumenib]	271	–	7590

Source: patent EP4775580A1, “COMPOUND, PHARMACEUTICAL COMPOSITION COMPRISING SAME, AND USE THEREOF” (Euregen Biopharma Co., Ltd., priority 2023, dated 2025)
